Assay results from patent US20250084095A1, “Aminopyrimidine Derivatives as Cyclin-Dependent Kinase Inhibitors” (Accutar Biotechnology Inc., priority 2023, published 2025).

Assays:
22RV1 cells = assay: Cell growth inhibition of 22RV1 cells (CellTiter-Glo); format: cell-based; details: Homo sapiens, 22Rv1, 120 h, 5 days, CellTiter-Glo, read-out: 22RV1 Cell Growh GI50
Method in brief: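 22RV1 cells were plated in RPMI1640 with FBS (20% in one version, 10% in the other) and dosed next day at various concentrations from DMSO stocks. After 5 days at 37 °C, viability was measured by CellTiter-Glo luminescence.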

[1] = test system: Phospho-Rb (Ser807/811) in MCF7 cells; assay: Phospho-Rb expression inhibition in MCF7 cells quantified by in cell Western; format: cell-based, human; details: Homo sapiens, MCF7, 24 h, 24 hours, in cell Western, read-out: MCF7 pRb IC50
Method in brief: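 MCF7 cells were seeded at 20,000/well, grown overnight, then treated 24 h at 37 °C with compound dilutions (0.1% DMSO from 1000× stocks). Fixed cells were co-stained for phospho-Rb Ser807/811 and total Rb. Near-infrared dual-channel in-cell Western imaging was the read-out.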

Row | SMILES | GI50 (22RV1 cells) [nM] | IC50 [1] [nM]
1 | O[C@@H]1[C@@H]2OC[C@H](C[C@H]1Nc1ncc(Cl)c(-c3cc(F)c4ncc(CN5CCOCC5)cc4c3)n1)O2 [Compound 261, (1S,3R,4S,5R)-3-((5-chloro-4-(8-fluoro-3-(morpholinomethyl)quinolin-6-yl)pyrimidin-2-yl)amino)-6,8-dioxabicyclo[3.2.1]octan-4-ol] | 450 to 3000 | 150 to 1000
2 | C[C@H]1COC[C@H](C)N1Cc1cnc2c(F)cc(-c3nc(N[C@@H]4C[C@H]5CO[C@H](O5)[C@H]4O)ncc3Cl)cc2c1 [Compound 262, (1S,3R,4S,5R)-3-((5-chloro-4-(3-(((3S,5S)-3,5-dimethylmorpholino)methyl)-8-fluoroquinolin-6-yl)pyrimidin-2-yl)amino)-6,8-dioxabicyclo[3.2.1]octan-4-ol] | 450 to 3000 | 150 to 1000
3 | CC(C)[C@@H]1COC(=O)N1c1nc2c(F)cc(-c3nc(N[C@@H]4C[C@H]5CO[C@H](O5)[C@H]4O)ncc3Cl)cc2n1C(C)C [Compound 263, (R)-3-(6-(5-chloro-2-(((1S,3R,4S,5R)-4-hydroxy-6,8-dioxabicyclo[3.2.1]octan-3-yl)amino)pyrimidin-4-yl)-4-fluoro-1-isopropyl-1H-benzo[d]imidazol-2-yl)-4-isopropyloxazolidin-2-one] | > 3000 | 150 to 1000
4 | CC(C)(O)c1cnc2c(F)cc(-c3nc(N[C@@H]4C[C@H]5CO[C@H](O5)[C@H]4O)ncc3Cl)cc2n1 [Compound 264, (1S,3R,4S,5R)-3-((5-chloro-4-(8-fluoro-3-(2-hydroxypropan-2-yl)quinoxalin-6-yl)pyrimidin-2-yl)amino)-6,8-dioxabicyclo[3.2.1]octan-4-ol] | 450 to 3000 | 150 to 1000
5 | CC(C)n1c([C@H]2CCOC2)nc2c(F)cc(-c3nc(N[C@@H]4C[C@H]5CO[C@H](O5)[C@H]4O)ncc3Cl)cc21 [Compound 267, (1S,3R,4S,5R)-3-((5-chloro-4-(4-fluoro-1-isopropyl-2-((R)-tetrahydrofuran-3-yl)-1H-benzo[d]imidazol-6-yl)pyrimidin-2-yl)amino)-6,8-dioxabicyclo[3.2.1]octan-4-ol] | 120 to 450 | 40 to 150
6 | Cc1c(CN2C[C@@H](C)OC2=O)n(C(C)C)c2cc(-c3nc(N[C@@H]4C[C@H]5CO[C@H](O5)[C@H]4O)ncc3F)ccc2c1=O [Compound 271, (R)-3-((7-(5-fluoro-2-(((1S,3R,4S,5R)-4-hydroxy-6,8-dioxabicyclo[3.2.1]octan-3-yl)amino)pyrimidin-4-yl)-1-isopropyl-3-methyl-4-oxo-1,4-dihydroquinolin-2-yl)methyl)-5-methyloxazolidin-2-one] | > 3000 | 150 to 1000
7 | CC(C)n1c(N2CCOC2=O)nc2c(F)cc(-c3nc(N[C@@H]4C[C@H]5CO[C@H](O5)[C@H]4O)ncc3Cl)cc21 [Compound 272, 3-(6-(5-chloro-2-(((1S,3R,4S,5R)-4-hydroxy-6,8-dioxabicyclo[3.2.1]octan-3-yl)amino)pyrimidin-4-yl)-4-fluoro-1-isopropyl-1H-benzo[d]imidazol-2-yl)oxazolidin-2-one] | 450 to 3000 | 40 to 150
8 | Cc1c(CN2CCC[C@@H](O)C2)n(C(C)C)c2cc(-c3nc(N[C@@H]4C[C@H]5CO[C@H](O5)[C@H]4O)ncc3F)ccc2c1=O [Compound 291, 7-(5-fluoro-2-(((1S,3R,4S,5R)-4-hydroxy-6,8-dioxabicyclo[3.2.1]octan-3-yl)amino)pyrimidin-4-yl)-2-(((R)-3-hydroxypiperidin-1-yl)methyl)-1-isopropyl-3-methylquinolin-4(1H)-one] | 120 to 450 | 150 to 1000
9 | Cc1c(CN2CC[C@@H](F)C2)n(C(C)C)c2cc(-c3nc(N[C@@H]4C[C@H]5CO[C@H](O5)[C@H]4O)ncc3F)ccc2c1=O [Compound 292, 7-(5-fluoro-2-(((1S,3R,4S,5R)-4-hydroxy-6,8-dioxabicyclo[3.2.1]octan-3-yl)amino)pyrimidin-4-yl)-2-(((R)-3-fluoropyrrolidin-1-yl)methyl)-1-isopropyl-3-methylquinolin-4(1H)-one] | 120 to 450 | 40 to 150
10 | CCCc1cn(C)c(=O)c2ccc(-c3nc(N[C@@H]4C[C@H]5CO[C@H](O5)[C@H]4O)ncc3Cl)cc12 [Compound 294, 6-(5-chloro-2-(((1S,3R,4S,5R)-4-hydroxy-6,8-dioxabicyclo[3.2.1]octan-3-yl)amino)pyrimidin-4-yl)-2-methyl-4-propylisoquinolin-1(2H)-one] | 450 to 3000 | 150 to 1000
11 | CC(C)(O)c1cnc2cc(-c3nc(N[C@@H]4C[C@H]5CO[C@H](O5)[C@H]4O)ncc3Cl)cc(F)c2n1 [Compound 295, (1S,3R,4S,5R)-3-((5-chloro-4-(8-fluoro-2-(2-hydroxypropan-2-yl)quinoxalin-6-yl)pyrimidin-2-yl)amino)-6,8-dioxabicyclo[3.2.1]octan-4-ol] | > 3000 | 150 to 1000
12 | CC(C)n1c(N2C(=O)OC[C@H]2C)nc2c(F)cc(-c3nc(N[C@@H]4C[C@H]5CO[C@H](O5)[C@H]4O)ncc3Cl)cc21 [Compound 296, (R)-3-(6-(5-chloro-2-(((1S,3R,4S,5R)-4-hydroxy-6,8-dioxabicyclo[3.2.1]octan-3-yl)amino)pyrimidin-4-yl)-4-fluoro-1-isopropyl-1H-benzo[d]imidazol-2-yl)-4-methyloxazolidin-2-one] | 450 to 3000 | 150 to 1000
13 | CC(C)[C@H]1COC(=O)N1c1nc2c(F)cc(-c3nc(N[C@@H]4C[C@H]5CO[C@H](O5)[C@H]4O)ncc3Cl)cc2n1C(C)C [Compound 297, (S)-3-(6-(5-chloro-2-(((1S,3R,4S,5R)-4-hydroxy-6,8-dioxabicyclo[3.2.1]octan-3-yl)amino)pyrimidin-4-yl)-4-fluoro-1-isopropyl-1H-benzo[d]imidazol-2-yl)-4-isopropyloxazolidin-2-one] | 450 to 3000 | 150 to 1000

Now from value to compound:

Row | GI50 (22RV1 cells) [nM] | IC50 [1] [nM] | SMILES
14 | 120 to 450 | 40 to 150 | Cc1c(-c2nc(N[C@@H]3C[C@H]4CO[C@H](O4)[C@H]3O)ncc2Cl)sc2cc(C(C)(C)O)cnc12 [Compound 260, (1S,3R,4S,5R)-3-((5-chloro-4-(6-(2-hydroxypropan-2-yl)-3-methylthieno[3,2-b]pyridin-2-yl)pyrimidin-2-yl)amino)-6,8-dioxabicyclo[3.2.1]octan-4-ol]
15 | ≤ 120 | ≤ 40 | Cc1c(-c2nc(N[C@@H]3C[C@H]4CO[C@H](O4)[C@H]3O)ncc2F)sc2c(C(C)C)cnnc12 [Compound 266, (1S,3R,4S,5R)-3-((5-fluoro-4-(4-isopropyl-7-methylthieno[3,2-c]pyridazin-6-yl)pyrimidin-2-yl)amino)-6,8-dioxabicyclo[3.2.1]octan-4-ol]
16 | ≤ 120 | ≤ 40 | Cc1c(-c2nc(N[C@@H]3C[C@H]4CO[C@H](O4)[C@H]3O)ncc2F)sc2c(C)c(C(C)(C)O)cnc12 [Compound 278, (1S,3R,4S,5R)-3-((5-fluoro-4-(6-(2-hydroxypropan-2-yl)-3,7-dimethylthieno[3,2-b]pyridin-2-yl)pyrimidin-2-yl)amino)-6,8-dioxabicyclo[3.2.1]octan-4-ol]
17 | ≤ 120 | 150 to 1000 | Cc1c(C(C)(C)O)nnc2c(F)cc(-c3nc(N[C@@H]4C[C@H]5CO[C@H](O5)[C@H]4O)ncc3Cl)cc12 [Compound 279, (1S,3R,4S,5R)-3-((5-chloro-4-(8-fluoro-3-(2-hydroxypropan-2-yl)-4-methylcinnolin-6-yl)pyrimidin-2-yl)amino)-6,8-dioxabicyclo[3.2.1]octan-4-ol]
18 | ≤ 120 | 150 to 1000 | Cc1c(C(C)(C)O)nnc2c(F)cc(-c3nc(N[C@@H]4C[C@H]5CO[C@H](O5)[C@H]4O)ncc3F)cc12 [Compound 280, (1S,3R,4S,5R)-3-((5-fluoro-4-(8-fluoro-3-(2-hydroxypropan-2-yl)-4-methylcinnolin-6-yl)pyrimidin-2-yl)amino)-6,8-dioxabicyclo[3.2.1]octan-4-ol]
19 | ≤ 120 | ≤ 40 | Cc1c(C(C)(C)O)cnc2c(Cl)cc(-c3nc(N[C@@H]4C[C@H]5CO[C@H](O5)[C@H]4O)ncc3F)cc12 [Compound 283, (1S,3R,4S,5R)-3-((4-(8-chloro-3-(2-hydroxypropan-2-yl)-4-methylquinolin-6-yl)-5-fluoropyrimidin-2-yl)amino)-6,8-dioxabicyclo[3.2.1]octan-4-ol]
20 | ≤ 120 | ≤ 40 | Cc1c(C(C)(C)O)cnc2c(Cl)cc(-c3nc(N[C@@H]4C[C@H]5CO[C@H](O5)[C@H]4O)ncc3Cl)cc12 [Compound 284, (1S,3R,4S,5R)-3-((5-chloro-4-(8-chloro-3-(2-hydroxypropan-2-yl)-4-methylquinolin-6-yl)pyrimidin-2-yl)amino)-6,8-dioxabicyclo[3.2.1]octan-4-ol]
21 | ≤ 120 | ≤ 40 | CC(C)(O)c1cnc2c(Cl)cc(-c3nc(N[C@@H]4C[C@H]5CO[C@H](O5)[C@H]4O)ncc3F)cc2c1Cl [Compound 285, (1S,3R,4S,5R)-3-((4-(4,8-dichloro-3-(2-hydroxypropan-2-yl)quinolin-6-yl)-5-fluoropyrimidin-2-yl)amino)-6,8-dioxabicyclo[3.2.1]octan-4-ol]
22 | ≤ 120 | ≤ 40 | CC(C)(O)c1cnc2c(Cl)cc(-c3nc(N[C@@H]4C[C@H]5CO[C@H](O5)[C@H]4O)ncc3Cl)cc2c1Cl [Compound 286, (1S,3R,4S,5R)-3-((5-chloro-4-(4,8-dichloro-3-(2-hydroxypropan-2-yl)quinolin-6-yl)pyrimidin-2-yl)amino)-6,8-dioxabicyclo[3.2.1]octan-4-ol]
